Experimental data from patent US12622917B2, “High-activity Wnt pathway inhibitor compound” (ADLAI NORTYE BIOPHARMA CO., LTD., priority 2020, dated 2026).
Read-outs that look alike come from different tables or passages of the source.

How the values were obtained:
RKO = test: Proliferation inhibition, non-Wnt mutant control cell line RKO; type: cell-based; conditions: Wnt-independent control cell line, 96 hours, read-out: Antiproliferative IC50 RKO
How it was run: (§1)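 Cells were seeded at 1000 per well, incubated 20-24 h at 37° C in 5% CO2, then exposed to 3-fold serially diluted compound (top final concentration 20 uM) for 96 hours. Viability was read by a Promega cell viability assay; IC50 values were derived relative to DMSO-only and cell-free control wells.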

[1] = tested on: Colo205-LUC-TCF/LEF M1 reporter cell line (Wnt pathway); test: Colo205-LUC-TCF/LEF M1 reporter gene (luciferase) inhibition; type: cell-based; conditions: 4 hours incubation, luciferase readout
How it was run: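 Luminescent readout of TCF/LEF-regulated luciferase after a 4 h, 37° C compound exposure in a stable Colo205 reporter clone (10,000 cells/well). Serial 3-fold dilutions started at 20 uM; IC50 derived using DMSO-treated cells and no-cell wells as controls.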

HepG2 = test: Proliferation inhibition, HepG2 cell line; type: cell-based; conditions: Homo sapiens; HepG2 cells, 96 hours culture, cell viability detection; read-out: Antiproliferative IC50 HepG2
How it was run: (§2)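 Wnt-dependent proliferation in HepG2 and NCI-H929 cells, seeded at 4000 cells/well and pre-incubated 20-24 h at 37 °C. Cells were then exposed for 96 h to 3-fold serial dilutions (top final concentration 20 uM), and viability was read by signal intensity. IC50 was referenced to DMSO-only wells and cell-free wells.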

DU4475 = test: Proliferation inhibition, Wnt mutant cell line DU4475; type: cell-based; conditions: DU4475, Wnt pathway-dependent, 96 hours, read-out: Antiproliferative IC50 DU4475
How it was run: as §1

NCI-H929 = test: Proliferation inhibition, NCI-H929 cell line; type: cell-based, human; conditions: NCI-H929 cells, 96 hours culture, cell viability detection, read-out: Antiproliferative IC50 NCI-H929
How it was run: as §2

Hela = test: Proliferation inhibition, non-Wnt mutant control cell line Hela; type: cell-based; conditions: Wnt-independent control cell line, 96 hours, read-out: Antiproliferative IC50 Hela
How it was run: as §1

Colo205 = test: Proliferation inhibition, Wnt mutant cell line Colo205; type: cell-based; conditions: Colo205, Wnt pathway-dependent, 96 hours, read-out: Antiproliferative IC50 Colo205
How it was run: as §1

[2] = tested on: human myeloma cell NCI-H929 SCID xenograft; test: Tumor growth inhibition, NCI-H929 mouse xenograft model; type: in vivo; conditions: 30 mg/kg, PO, QD x 21
Protocol: In this study, human myeloma cell NCI-H929 SCID xenograft model was used to evaluate the anti-tumor activity of compound 11 in vivo.
Female SCID were subcutaneously inoculated with human myeloma cells NCI-H929 to establish the NCI-H929 SCID xenograft model. After the tumor grew to an average tumor volume of about 80 mm^3, the tumor-bearing mice were randomly divided into two groups according to the tumor volume: the solvent-treated control group and the 30 mg/kg compound 11 group. Compound 11 was administered orally, once a day, and the administration cycle was 21 days. The tumor volume was measured every other day, and the body weight and tumor volume were measured on Day 21 (Table 4 and FIG. 1).

IC50 [1] [nM]	IC50 (HepG2) [nM]	IC50 (NCI-H929; Homo sapiens) [nM]	IC50 (Hela; Homo sapiens) [nM]	IC50 (Colo205; Homo sapiens, COLO 205) [nM]	IC50 (NCI-H929) [nM]	IC50 (Hela) [nM]	IC50 (Colo205) [nM]	Molecule	IC50 (RKO; Homo sapiens) [nM]	IC50 (DU4475; Homo sapiens, DU-4475) [nM]	% T/CRTV Day 21 [2] [%]	% TGITW Day 21 [2] [%]	% TGItv Day 21 [2] [%]	RTV Day 21 [2]	Tumor weight Day 21 [2] [g]	IC50 (RKO) [nM]	IC50 (DU4475) [nM]
21	40	94	> 10000	20				O=C1[C@@H]2CCCN2c2nc(NCc3ccc(Oc4ccc(C(F)(F)F)nc4)nc3)nc3c2N1CCC3 [111 (W241), (S)-2-(((6-((6-(trifluoromethyl)pyridin-3-yl)oxo)pyridin-3-yl)methyl)amino)-5,6,8a,9, 10,11-hexahydro-4H,8H-pyrido[3,2,1-de]pyrrolo[2,1-h]pteridin-8-one]	> 10000	37							
27	37	60	> 10000	23				CO[C@H](C)[C@H]1C(=O)N2CCCc3nc(NCc4ccc(Oc5ccc(C(F)(F)F)nc5)nc4)nc(c32)N1C [114 (W243), (S)-5-((R)-1-methoxyethyl)-4-methyl-2-(((6-((6-(trifluoromethyl)pyridin-3-yl)oxo)pyridin-3-yl)methyl)amino)-4,5,9,10-tetrahydro-6H,8H-pyrido[3,2,1-de]pteridin-6-one]	> 10000	20							
4	3.1	27	> 10000	3.4				CC(C)[C@H]1C(=O)N2CCCc3nc(NCc4ccc(Oc5ccc(C(F)(F)F)nc5)nc4)nc(c32)N1C [117 (W237), (S)-5-isopropyl-4-methyl-2-(((6-((6-(trifluoromethyl)pyridin-3-yl)oxo)pyridin-3-yl)methyl)amino)-4,5,9,10-tetrahydro-6H,8H-pyrido[3,2,1-de]pteridin-6-one]	> 10000	8.2							
61					55	> 10000	32	(S)-4,5-dimethyl-2-(((6-((6-(trifluoromethyl)pyridin-3-yl)oxy)pyridin-3-yl)methyl)amino)-4,5,9,10-tetrahydro-6H,8H-pyrido[3,2,1-de]pteridin-6-one [Example 11]			1.59	98.86	98.42	0.33	0.023	> 10000	37
